The test system of series [1] is 9L/pBabe, 9L/2B6, 9L/hRED and 9L/2B6/hRED gliosarcoma cells.
Experimental: Cells were seeded at 4000 cells/well in 48-well plates and treated with increasing concentrations of CPA for 4 days. Cell growth in comparison to drug-free controls was determined by crystal violet staining and is presented as mean±SD for n=3 replicates.
FIG. 21 is a graph depicting the cytotoxic effects of the bioreductive drug TPZ toward 9L/pBabe control cells and 9L cells transduced with retroviruses encoding human RED and/or P450 2B6 under normoxic culture conditions. Cells were seeded at 4000 cells/well in 48-well plates and treated with increasing concentrations of TPZ for 4 days. Cell growth in comparison to drug-free controls was determined by crystal violet staining and is presented as mean±SD for n=3 replicates.
FIG. 22 is a graph depicting the cytotoxicity of increasing concentrations of TPZ under hypoxic conditions (1% O2) toward 9L tumor cells transduced with retroviruses encoding P450 2B6 and/or human RED. 9L/pBabe cells served as controls. Cells were seeded at 4000 cells/well in 48-well plates and treated with increasing concentrations of TPZ for 4 days. Cell growth in comparison to drug-free controls was determined by crystal violet staining and is presented as mean±SD for n=3 replicates.
FIGS. 24A, 24B and 24C are graphs depicting the cytotoxic effects of TPZ (5 or 10 μM, as indicated) in combination with increasing concentrations of CPA under normoxic culture conditions (19.6% O2, 5% CO2). The data shown were obtained using 9L/2B6/hRED cells (FIG. 24A), 9L/hRED cells (FIG. 24B) and 9L/pBabe (control) cells (FIG. 24C). Data were compared to the cytotoxicity of increasing concentrations of CPA alone (i. e., in the absence of TPZ) measured using the same pools of tumor cells. Cells were seeded at 4000 cells/well in 48-well plates and then treated with the indicated drug concentrations for 4 days. Cell growth in comparison to drug-free controls (i.e., in the absence of CPA and TPZ) was determined by crystal violet staining and is presented as mean±SD for n=3 replicates.
FIGS. 25A, 25B and 25C are graphs depicting the cytotoxic effects of TPZ (0.5 or 1.5 μM, as indicated) in combination with increasing concentrations of CPA under hypoxic culture conditions (1% O2, 5% CO2). The data shown were obtained using 9L/2B6/hRED cells (FIG. 25A), 9L/hRED cells (FIG. 25B) and 9L/pBabe (control) cells (FIG. 25C). Data were compared to the cytotoxicity of increasing concentrations of CPA alone (i.e., in the absence of TPZ) measured using the same pools of tumor cells. Cells were seeded at 4000 cells/well in 48-well plates and then treated with the indicated drug concentrations for 4 days. Cell growth in comparison to drug-free controls (i.e., in the absence of CPA and TPZ) was determined by crystal violet staining and is presented as mean±SD for n=3 replicates.
Cytotoxicity assays: To evaluate the chemosensitivity of the P450- and P450/RED-expressing 9L tumor cells, cells were plated in triplicate at 4000 cells/well of a 48-well plate 18-24 hours prior to drug treatment. Cells were then treated with drugs (0 to 1 mM CPA or 0 to 50 μM TPZ, as indicated in each experiment) and placed in a tissue culture incubator maintained under hypoxic conditions (1% O2, 5% CO2, 94% N2) or under normoxic conditions (19.6% O2, 5% CO2, 75.4% N2) for a period of 4 days. 9L/pBabe cells, which were transduced with the empty retroviral plasmid pBabe-puro (see, Example 2), served as controls. Cells remaining after this time were quantitated using a crystal violet/alcohol-extraction assay, as described under Example 2. Data are presented as cell number relative to drug-free controls, mean±SD values for triplicate samples, unless indicated otherwise.
For series [2], the system named is rodent and human tumor xenograft models. The note with it: cited from earlier work.
In series [3] the test system is 9L/wt cells. Kind of series: Intrinsic chemosensitivity of 9L/wt cells to chemically activated CPA and IFA. It is filed as cell-based, rat. On the procedure:
9L/wt cells seeded at 2000 cells/ well in 48-well plates were treated for 3-4 hours with increasing concentrations of 4-hydroperoxy-CPA or 4-hydroxyperoxy-IFA (0 to 100 μM). Cells were then incubated in fresh drug-free media and allowed to grow for 4 days. Cell growth as a percent of drug-free controls was then determined by crystal violet staining. Data shown are mean±range for duplicate samples.
Briefly, culture dishes were washed once with phosphate buffered saline (PBS), stained for 10 minutes with crystal violet (1.25 g crystal violet (Sigma) dissolved in 500 ml containing 50 ml of 37% formaldehyde and 450 ml methanol), and then washed with PBS, twice for 20 minutes per wash. Absorbance values were measured in an SLT Spectra microtiter plate reader using a 595 nm filter. Background absorbance determined from wells containing culture media alone was subtracted from each value.

The test system of series [4] is P450 2C9. The settings on record: cited from earlier work.
Series [5] deals with CYP2C9. The note with it: subset of cancer patients; cited from earlier work.
Series [6] concerns 9L gliosarcoma cells (parental, CYP2B1+, CYP2B1+ RED+++). Put plainly: In vitro growth inhibition assay, XTT (Example 1). The settings on record: for increase of cell survival ratio in CYP2B1+ RED+++ cells / rescue of CYP2B1+ and CYP2B1+ RED+++ cells from CPA toxicity: 1 mM CPA, AADP 0.5 mM or DPI 5 μM; for rescue of CYP2B1+ and CYP2B1+ RED+++ cells from CPA toxicity: FIG. 4. (Tetrazolium dyes change colour on reduction, which living cells bring about.)
Experimental: Cells (1000/well) seeded in 96-well plates were treated with the indicated concentrations of CPA for 4 days. Corresponding controls received no drug treatment. Cell survival was determined by an XTT calorimetric assay. Data (mean for triplicate samples) were expressed as growth ratio (%), i. e., cell number (XTT activity) in drug treated plates as a percentage of the corresponding drug-free controls.
Cells (500/well) seeded in 96-well plates were treated with 1 mM cyclophosphamide in the absence or presence of the RED inhibitors AADP (0.5 mM) or DPI (5 μM). Corresponding controls received no drug treatment. Cell survival was determined by an XTT colorimetric assay. Data (mean for triplicate samples) are expressed as growth ratio (%), i.e., cell number (XTT activity) in drug treated plates as a percentage of the corresponding drug-free controls and are representative of 2-3 independent experiments. AADP and DPI were added to the cells 30 minutes prior to CPA treatment.
(B) Growth inhibition assay--Cells (1000/well) seeded in 96 well plates were treated with the indicated concentrations of CPA for 4-5 days. Corresponding controls received no drug treatment. Cell survival was determined by an XTT colorimetric assay, a cell proliferation assay that measures mitochondrial dehydrogenase activity of viable cells (Scudiero, D. A., et al., Cancer Res. 48:4827-4833 (1988)).

For series [7] the test system is unchanged. Put plainly: In vitro colony formation cytotoxicity assay (Example 1). It is filed as cell-based, rat. The note with it: FIG. 3A. From the text:
FIGS. 2A and 2C depict the results of a colony formation cytotoxicity assay.
FIG. 3A depicts results from a colony formation cytotoxicity assay. […] The survival fraction is expressed as the number of colonies in each treatment group compared to the untreated control.
(§1) Corresponding controls received no drug treatment.

The test system of series [8] is 9L, 9L/2B1 and 9L/2B1/RED cells. Put plainly: Adriamycin growth inhibition assay. It is filed as cell-based, rat. On the procedure: The indicated 9L, 9L/2B1 and 9L/2B1/RED clonal cell lines, described in Example 1, were treated with Adriamycin for 2 days at the indicated drug concentrations. Cytotoxicity was measured after 5 days continuous culture using a growth inhibition assay, as described under FIG. 2B of Example 1. […] Data shown are averages of duplicates.
as §1
9L gliosarcoma cell lines stably expressing rat P450 2B1 and rat RED: The following rat 9L gliosarcoma transfectants were those already described in Example 1: P3 and P17, which stably express P450 gene CYP2B1; 9L-lacZ, which stably expresses the E. coli β-galactosidase gene; R26, which stably expresses rat RED but not P450; and PR1, PR7, PR11, which stably express rat P450 2B1 and rat RED.

Series [9] deals with 9L tumor cells. Kind of series: Control experiment: effect of semicarbazide on cell viability. The note with it: 5 mM, up to 48 hours. It is filed as cell-based, rat.
Series [10] relates to 9L/pBabe bystander cells. Put plainly: Bystander cytotoxicity/co-culture with cell culture inserts. It is filed as cell-based, rat. The settings on record: Rattus norvegicus, 96 h, 9L/2B6/reductase, 0.67 mM. The procedure: FIGS. 18A and 18B are graphs depicting the bystander cytotoxicity of 9L/2B6/reductase and 9L/2B6 cells. In FIG. 18A, bystander cytotoxicity of 9L/2B6/reductase cells is compared to that of 9L/2B6 cells. In both cases, 9L/pBabe served as the bystander cells. 9L/pBabe cells were plated in duplicate at 10^5 cells/well of a 6-well plate (lower chamber). 9L/2B6/reductase cells or 9L/2B6 cells were plated in 25 mm cell culture inserts (upper chamber) at concentrations ranging from 10^4 to 6×10^5 cells, corresponding to ratios of 0.1 to 6 relative to the bystander 9L/pBabe cells growing in the lower chamber, as shown on the x-axis. Cells were incubated in a total volume of 3 ml Dulbecco's minimal essential medium (DMEM), 10% FBS, containing 1 mM CPA, final CPA concentration.
The experimental design was the same as in FIG. 18A, except that the final drug concentration was 0.67 mM. Data shown for both panels correspond to the survival of 9L/pBabe bystander cells in the lower chamber.
Bystander cytotoxicity/co-culture experiments: 9L/pBabe cells were plated in duplicate at 10^5 cells/well in the lower chamber of a 6-well Falcon co-culture plate (30 mm diameter wells) (Falcon 3046). 9L/2B6/reductase cells were plated in 25 mm cell culture inserts (0.4 μm pore size; Falcon 3090), at dilutions ranging from 0. 1 to 6 times the number of 9L/pBabe cells plated in the lower chamber. […] Relative cell numbers were quantitated 4 days later by crystal violet staining.

The conditions of series [11]: in vivo; cited from earlier work.
Series [12] has as its system human cytochrome P450s. The note with it: cited from earlier work.

“Also recorded” adds a separate entry of the source. Where two headings read alike, the source gives them in different places.

`Nc1n[n+]([O-])c2ccccc2[n+]1[O-]` [TPZ, 3-amino-1,2,4-benzotriazine-1,4-di-N-oxide]: in [1], the “effect of P450 2B6 and RED on TPZ cytotoxicity” value is recorded as “substantial increase in cytotoxicity”; the “effect of P450 2B6 expression alone on TPZ cytotoxicity” value was “no effect on the cytotoxicity”; the “effect of P450 2B6 on TPZ cytotoxicity” value is reported as “Some enhanced cytotoxicity”; the “effect of RED gene transfer on TPZ sensitivity” value was “chemosensitized 9L tumor cells”. Moreover, in [1], the “effect of RED gene transfer, with or without P450 2B6, on TPZ cytotoxicity” value is “increase in TPZ cytotoxicity” and the “intrinsic cytotoxicity under hypoxic vs normoxic conditions” value is given as “intrinsically more cytotoxic”. Besides, the “effect of TPZ on activity of CPA and other cancer chemotherapeutics” value in series [2] (in vivo) is on record as “enhance the activity of CPA”. Further, in series [2] (with CPA and other chemotherapeutics), the “bone marrow toxicity with TPZ combination” value is reported as “corresponding increase in bone marrow toxicity”.

Take `O=P1(N(CCCl)CCCl)NC(OO)CCO1` (stereo not shown) [4-hydroperoxy-CPA]: the “sensitivity of 9L cells to activated CPA compared to activated IFA” value in [3] (0 to 100 μM, 3-4 h, 4 days regrowth) is “approximately 3 fold”. For the same compound, the “intrinsic sensitivity of 9L cells to activated CPA compared to activated IFA” value in [3] (FIG. 16) was “greater intrinsic sensitivity”.

Take `Nc1ccc(S(=O)(=O)Nc2ccnn2-c2ccccc2)cc1` [sulfaphenazole]: the “inhibition of P450 2C9-catalyzed human liver CPA activation” value in [4] is recorded as “inhibits P450 2C9-catalyzed human liver CPA activation”. In series [5], the “effect on elimination of CPA” value is “slows the elimination of CPA”.

`c1ccc2c(c1)[I+]c1ccccc1-2` [DPI, diphenyleneiodonium chloride]: in series [6], the “increase of cell survival ratio in CYP2B1+ RED+++ cells” value was 3-5 fold; the “rescue of CYP2B1+ and CYP2B1+ RED+++ cells from CPA toxicity” value is listed as “partially rescued”. Further, in series [6] (Rattus norvegicus, read-out: growth inhibition in absence of CPA), the inhibition (as a rule, the share of the control response that was lost under treatment) at 5 µM was ~20%.

Turning to `CC(C)(C(=O)c1cccnc1)c1cccnc1` [metyrapone], the “blocking of CPA cytotoxicity toward CYP2B1+ cells” value is reported as “significantly blocked the cytotoxic effects” in series [7] (10 μM and higher, P3 and P17); “significantly blocked the cytotoxic effects” in series [6] (10 μM and higher, P3 and P17, FIG. 3). Further, the “inhibition of CPA cytotoxicity in RED-overexpressing CYP2B1+ cells” value was “only slightly inhibited the cytotoxic effect” in series [7] (10 μM) and “only slightly inhibited the cytotoxic effect” in series [6] (10 μM, FIG. 3).

Consider `COc1cccc2c1C(=O)c1c(O)c3c(c(O)c1C2=O)C[C@@](O)(C(=O)CO)C[C@@H]3O[C@H]1C[C@H](N)[C@H](O)[C@H](C)O1` [Adriamycin, doxorubicin], for which, in series [8] (100 nM, 2 days), the “toxicity to 9L and 9L/lacZ cells without P450 metabolism” value was “toxic to 9L cells”. The “effect of co-expression of RED with P450 2B1 on Adriamycin cytotoxicity” value in [8] (PR11 and PR7) is “large enhancement in Adriamycin cytotoxicity; also recorded: Enhanced cytotoxicity”. Moreover, the “chemosensitization to Adriamycin in line PR1” value in [8] (RED overexpression approximately 2-fold) is reported as “more modest chemosensitization”. Besides, in series [8] (line R26), the “effect of RED overexpression alone on Adriamycin cytotoxicity” value is “did not enhance the cytotoxicity”.

As to `Nc1ccc[n+]([C@@H]2O[C@H](COP(=O)([O-])OP(=O)(O)OC[C@H]3O[C@@H](n4cnc5c(N)ncnc54)[C@H](O)[C@@H]3O)[C@@H](O)[C@H]2O)c1` [AADP, 3-aminopyridine adenine dinucleotide], the “toxicity to the cells in absence of CPA” value in [6] (0.5 mM) is listed as “no toxicity to the cells”. Moreover, in [6], the “increase of cell survival ratio in CYP2B1+ RED+++ cells” value was 2-3 fold; the “rescue of CYP2B1+ and CYP2B1+ RED+++ cells from CPA toxicity” value was “partially rescued”.

With `NNC(N)=O` [semicarbazide], the “effect on cell viability” value in series [9] is listed as “no detectable effect on cell viability”.

In the case of `O=P1(NCCCl)OCCCN1CCCl` (stereo not shown) [IFA, ifosfamide], the cytotoxicity at 670 µM was ~50% in series [10] (cell ratio 6:1, read-out: maximum bystander cytotoxicity) and ≤ 25% in [10] (cell ratios up to 3:1, read-out: bystander cytotoxicity). In addition, the “side effects of systemic distribution of drug and alkylating metabolites” value in series [11] was “cardiotoxicity, renal toxicity, marrow suppression, and neurotoxoxicity”.

On to `Clc1cnc(Oc2ccc(Oc3ncc(Cl)cc3Cl)cc2)c(Cl)c1` [TCPOBOP, 1,4-bis-2-(3,5-dichloropyridyloxybenzene)], for which the “induction of human cytochrome P450s in colon and breast tumors” value in series [12] is “profound inducer”.
